# Reference: patent US12612403B2, “Nitrogen-containing heterocyclic derivative inhibitor, and preparation method therefor and use thereof” (SHANGHAI HANSOH BIOMEDICAL CO., LTD., priority 2024, dated 2026)
# Assays:
# [1] = system: LDLR level in HepG2 cells; assay: Effect on the LDLR level in HepG2 cells (ELISA); assay type: cell-based, Human; settings: 48 hours, LDLR in lysate by ELISA
# Method: 1. Experimental objective: To detect the effect of the compounds on the LDLR protein level.
# 2. […] A self-adhesive seal was applied, the plate was placed on a plate shaker at room temperature, gently shaken, uniformly mixed, and incubated for 2 hours. • 11) The plate was placed on the plate washer, the washing liquid was set to 350 μL per well, and the plate was washed 4 times repeatedly. • 12) 200 μL of Human LDLR conjugate was added, a self-adhesive seal was applied, and the plate was placed on the plate shaker, well mixed uniformly, and incubated for 2 hours. • 13) The plate was placed on the plate washer, the washing liquid was set to 350 μL per well, and the plate was washed 4 times repeatedly. • 14) 200 μL/well of Substrate solution was added, and the plate was placed in the dark, applied with a self-adhesive seal, placed on the plate shaker, well mixed uniformly, and incubated for 20 minutes. • 15) 50 μL/well of Stop solution was added and mixed uniformly over 20 min. • 16) The optical density (OD) value in each well was measured in sequence at a wavelength of 450 nm by the microplate reader.
# 3. Experimental data processing method: After the OD values were read by the microplate reader, the OD value of the 0-concentration standard in the standard group was subtracted from the OD values of the standards, control group, and samples to obtain the actual OD values for these wells. […]
# [2] = system: PCSK9 secreted by HepG2 cells; assay: Effect on the concentration of PCSK9 secreted by HepG2 cells (ELISA); assay type: cell-based; settings: Homo sapiens, 48 hours, PCSK9 in culture medium by ELISA
# Method in brief: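 HepG2 cells treated with compound for 48 h at 37° C., 5% CO2. Secreted PCSK9 in medium quantified by sandwich ELISA (HRP detection, OD 450 nm) against a 0–10 ng/mL standard curve. Inhibition relative to control; IC50 fitted from concentration–inhibition data.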
# [3] = system: LDL-C; settings: combined with a statin; cited from earlier work
Compound,LDLR expression level [1] [%],IC50 [2] [µM],reduce LDL-C [3]
"O=C1c2ncncc2CN1c1ccc(N[C@H]2CC[C@H](Nc3nc4cc(F)ccn4n3)C2)nc1 [Example 21, 6-(6-(((1S,3S)-3-((7-fluoro-[1,2,4]triazolo[1,5-a]pyridin-2-yl)amino)cyclopentyl)amino)pyridin-3-yl)-5,6-dihydro-7H-pyrrolo[3,4-d]pyrimidin-7-one]",135,,
O=C1c2c(cccc2C(F)(F)F)CN1c1ccc(N[C@H]2CC[C@H](Nc3nc4cc(F)ccn4n3)C2)nc1 [Example 25],132,17.6,
O=C1[C@H](CC[C@H](O)c2ccc(F)cc2)[C@@H](c2ccc(O)cc2)N1c1ccc(F)cc1 [Ezetimibe],,,15-20%
